The record followed here is ChEMBL document CHEMBL1136513, “Evaluation of vinylsulfamides as sulfhydryl selective alkylation reagents in protein modification” (Bioorg Med Chem Lett, 2003).

The nature of series [1]: Half-life period at pH 7.2 in the presence of five times more cysteine. Type of series: ADME.
Series [2] is described as follows: Half-life period at pH 8.1 in the presence of five times more cysteine. In kind it is ADME.
The nature of series [3]: Half-life period at pH 8.1 in the presence of five times more lysine. In kind it is ADME.
Series [4] can be described thus: Half-life period at pH 9.2 in the presence of five times more cysteine; ND1 indicates reaction rate was too quick to determine. Type of series: ADME.
The nature of series [5]: Half-life period at pH 9.2 in the presence of five times more lysine. In kind it is ADME.
Series [6] can be described thus: Half-life period at pH 7.2 in the presence of five times more lysine; ND2 indicates reaction rate was too slow to measure.

Molecules are shown by their SMILES.

A word on the half-life: it is how long it takes for the measured level to halve. Regarding `C=CS(=O)(=O)NCc1ccc([N+](=O)[O-])cc1`, the half-life is 1.28 h in series [1], 0.45 h in series [2], 178 h in series [3] and 29.6 h in series [5]. Further, the T1/2 result in series [4] is “Reaction rate too quick”; in series [6], “Reaction rate too slow”.
